Laboratory results reported in PubChem BioAssay AID1919014 (Molecular Pharmacology Branch, DTP, NCI, 2023).
Each block holds one compound with its values, some of them ahead of it.

Tested on: NCI-H1341 complex spheroids, percent test/control
Experiment: Anticancer human tumor NCI-H1341 cell line growth inhibition [AhR];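 note: spheroids exposed to agents for seven days before readout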
Conditions: for IC50: curve of first compound; for viability, T/C: stronger effect = lower value
Excerpt: Multicellular complex tumor spheroid response to aryl hydrocarbon receptor antagonists in combination with a variety of drugs and investigational agents in selected tumor cell lines
The current study was undertaken to assess response to aryl hydrocarbon receptor antagonists in combination with standard-of-care drugs and investigational agents in solid tumor complex spheroid models. Complex spheroids include a stromal component modeled by human endothelial cells (HUVEC) and fibroblasts modeled by human mesenchymal stem cells (MSCs). The concentration ranges selected for each drug and investigational agent were based upon clinically achievable concentrations if the clinical Cmax of the agent was known.
Compounds. The drugs and investigational agents: BAY 2416964 (NSC825713), GNF351 (NSC835774), CH-223191 (NSC835775), CPI-455 (NSC825282), aza-TdCyd (NSC777586), decitabine (NSC127716), belinostat (NSC758774), entinostat (NSC756642), pevonedistat (NSC761192), tazemetostat (NSC777109), talazoparib (NSC765396), olaparib (NSC753686), selinexor (NSC780203), nedisertib (M3814, NSC802822), bortezomib (NSC756655), venetoclax (NSC766270), doxorubicin (NSC123127), elimusertib (BAY189344, NSC800525), ceralasertib (AZD6738, NSC777638), TAK-243 (NSC785004), alisertib (NSC759677), etoposide (NSC141540), topotecan (NSC609699), eribulin (NSC707389), gemcitabine (NSC613327), carboplatin (NSC241240), cisplatin (NSC119875), and SN-38 (NSC673596) were obtained from the National Cancer Institute (NCI) Developmental Therapeutics Program Chemical Repository (32). The FDA-approved anticancer drug set is available from the Developmental Therapeutics Program at https://dtp.cancer.gov/organization/dscb/obtaining/available plates.htm. […] The stock solutions were prepared in dimethyl sulfoxide (DMSO, Sigma-Aldrich, St. Louis, MO, cat. D2650), except for the platinum compounds which were prepared in saline (Quality Biological, Gaithersburg, MD, cat. 114-055-101), at 800-fold the tested concentration and stored at -70 degrees C prior to their use. All drugs and investigational agents were tested over a range starting from a high concentration at or near the clinical Cmax and decreasing in half-log increments. If the clinical Cmax for an agent had not been determined, the highest concentration tested was 10 microM (Table 1).
Cell Culture. All cells were maintained in an incubator at 37 degrees C and 5% CO2 with 95% humidity. The PDC lines were cultured according to standard operating procedures established by the NCI PDMR (https://pdmr.cancer.gov). Briefly, all PDCs were thawed and cultured in Matrigel-coated flasks prepared with a working solution of 1X Ham's F-12 nutrient mix, without supplementation (Invitrogen, Waltham, MA, cat. 11765054), 100 U/mL penicillin-streptomycin (Invitrogen, cat. 15140122), and 2.5% Matrigel (Corning Inc., Corning, NY, cat. 354248) for the first three passages. All PDCs were cultured in complete DMEM/F-12 media containing advanced DMEM/F-12 (Invitrogen, cat. 12634028), 4.9% defined fetal bovine serum, heat inactivated (HyClone Laboratories Inc., Logan, UT, cat. SH30070.03HI), 389 ng/mL hydrocortisone (Sigma-Aldrich, cat. H4001), 9.7 ng/mL human EGF recombinant protein (Invitrogen, cat. PHG0313), 23.4 microg/mL adenine (Sigma-Aldrich, cat. A2786), 97.3 U/mL penicillin-streptomycin (Invitrogen, cat. 15140122), 1.9 mM L-glutamine (Invitrogen, cat. 25030081), and 9.7 microM Y-27632 dihydrochloride (Tocris Bioscience, Bristol, United Kingdom, cat. 1254). The PDCs were cultured in complete DMEM/F12 media without 10 microM Y-27632 dihydrochloride for at least two passages prior to the screen. The established cell lines NCI-H1341 and […] were cultured in DMEM/F-12, HEPES (Invitrogen, cat. 11330032), 5% defined fetal bovine serum (HyClone Laboratories Inc., cat. SH30070.03), ITS premix universal culture supplement [insulin (5 microg/mL), transferrin (5 microg/mL), and selenious acid (5 ng/mL)] […]

[1] = second compound 0.1 µM, first compound 0.0316 µM
[2] = second compound 0.1 µM, first compound 0.1 µM
[3] = second compound 0.1 µM, first compound 0.316 µM
[4] = second compound 0.1 µM, first compound 1 µM
[5] = second compound 0.1 µM, first compound 3.16 µM
[6] = second compound 0.1 µM, first compound 10 µM
[7] = second compound 0.316 µM, first compound 0.0316 µM
[8] = second compound 0.316 µM, first compound 0.1 µM
[9] = second compound 0.316 µM, first compound 0.316 µM
[10] = second compound 0.316 µM, first compound 1 µM
[11] = second compound 0.316 µM, first compound 3.16 µM
[12] = second compound 0.316 µM, first compound 10 µM
[13] = second compound 1 µM, first compound 0.0316 µM
[14] = second compound 1 µM, first compound 0.1 µM
[15] = second compound 1 µM, first compound 0.316 µM
[16] = second compound 1 µM, first compound 1 µM
[17] = second compound 1 µM, first compound 3.16 µM
[18] = second compound 1 µM, first compound 10 µM
[19] = second compound 3.16 µM, first compound 0.0316 µM
[20] = second compound 3.16 µM, first compound 0.1 µM
[21] = second compound 3.16 µM, first compound 0.316 µM
[22] = second compound 3.16 µM, first compound 1 µM
[23] = second compound 3.16 µM, first compound 3.16 µM
[24] = second compound 3.16 µM, first compound 10 µM
[25] = second compound 10 µM, first compound 0.0316 µM
[26] = second compound 10 µM, first compound 0.1 µM
[27] = second compound 10 µM, first compound 0.316 µM
[28] = second compound 10 µM, first compound 1 µM
[29] = second compound 10 µM, first compound 3.16 µM
[30] = second compound 10 µM, first compound 10 µM

- IC50 (second compound 0.1 µM): 403 nM
- IC50 (second compound 0.316 µM): 382 nM
- IC50 (second compound 1 µM): 369 nM
- IC50 (second compound 3.16 µM): 127 nM
- IC50 (second compound 10 µM): < 31.6 nM
Structure (SMILES): Nc1ccccc1NC(=O)c1ccc(CNC(=O)OCc2cccnc2)cc1 + Cc1cncc(-c2nc(NCCc3c[nH]c4ccccc34)c3ncn(C(C)C)c3n2)c1
- viability, T/C [1]: 66.1%
- viability, T/C [2]: 76.2%
- viability, T/C [3]: 52.2%
- viability, T/C [4]: 29.1%
- viability, T/C [5]: 5.05%
- viability, T/C [6]: 0.51%
- viability, T/C [7]: 73.4%
- viability, T/C [8]: 65.8%
- viability, T/C [9]: 55.7%
- viability, T/C [10]: 26.1%
- viability, T/C [11]: 5.82%
- viability, T/C [12]: 0.6%
- viability, T/C [13]: 68.6%
- viability, T/C [14]: 84.9%
- viability, T/C [15]: 51.3%
- viability, T/C [16]: 19.8%
- viability, T/C [17]: 5.68%
- viability, T/C [18]: 0.56%
- viability, T/C [19]: 55.3%
- viability, T/C [20]: 52.2%
- viability, T/C [21]: 42.3%
- viability, T/C [22]: 21.7%
- viability, T/C [23]: 8.4%
- viability, T/C [24]: 0.87%
- viability, T/C [25]: 21.9%
- viability, T/C [26]: 22.6%
- viability, T/C [27]: 15.2%
- viability, T/C [28]: 9.63%
- viability, T/C [29]: 1.83%
- viability, T/C [30]: 0.47%

- IC50 (second compound 0.1 µM): 2370 nM
- IC50 (second compound 0.316 µM): 2150 nM
- IC50 (second compound 1 µM): 1710 nM
- IC50 (second compound 3.16 µM): 1810 nM
- IC50 (second compound 10 µM): 1240 nM
Structure (SMILES): CC1(C)CCC(CN2CCN(c3ccc(C(=O)NS(=O)(=O)c4ccc(NCC5CCOCC5)c([N+](=O)[O-])c4)c(Oc4cnc5[nH]ccc5c4)c3)CC2)=C(c2ccc(Cl)cc2)C1 + CC(CO)NC(=O)c1cc(-c2ccc(Cl)cc2)nn(-c2cnn(C)c2)c1=O
- viability, T/C [1]: 66.6%
- viability, T/C [2]: 74.9%
- viability, T/C [3]: 71.8%
- viability, T/C [4]: 71.1%
- viability, T/C [5]: 43%
- viability, T/C [6]: 12.9%
- viability, T/C [7]: 76.7%
- viability, T/C [8]: 76.5%
- viability, T/C [9]: 72.3%
- viability, T/C [10]: 63.8%
- viability, T/C [11]: 43.1%
- viability, T/C [12]: 11.7%
- viability, T/C [13]: 83.4%
- viability, T/C [14]: 74.4%
- viability, T/C [15]: 65.1%
- viability, T/C [16]: 61.4%
- viability, T/C [17]: 41.4%
- viability, T/C [18]: 11.3%
- viability, T/C [19]: 76.5%
- viability, T/C [20]: 88.8%
- viability, T/C [21]: 83.8%
- viability, T/C [22]: 63%
- viability, T/C [23]: 36.5%
- viability, T/C [24]: 12.4%
- viability, T/C [25]: 65.7%
- viability, T/C [26]: 84.7%
- viability, T/C [27]: 65.6%
- viability, T/C [28]: 54.1%
- viability, T/C [29]: 30.2%
- viability, T/C [30]: 9.65%

- IC50 (second compound 0.1 µM): > 300 nM
- IC50 (second compound 0.316 µM): 282 nM
- IC50 (second compound 1 µM): > 300 nM
- IC50 (second compound 3.16 µM): > 300 nM
- IC50 (second compound 10 µM): < 0.949 nM
Structure (SMILES): Nc1ncn(C2CC(O)C(CO)S2)c(=O)n1 (stereo not given) + Cc1cncc(-c2nc(NCCc3c[nH]c4ccccc34)c3ncn(C(C)C)c3n2)c1
- viability, T/C (second compound 0.1 µM, first compound 0.000949 µM): 102%
- viability, T/C (second compound 0.1 µM, first compound 0.003 µM): 82.9%
- viability, T/C (second compound 0.1 µM, first compound 0.00949 µM): 91.5%
- viability, T/C (second compound 0.1 µM, first compound 0.03 µM): 88.3%
- viability, T/C (second compound 0.1 µM, first compound 0.0949 µM): 67.7%
- viability, T/C (second compound 0.1 µM, first compound 0.3 µM): 50.2%
- viability, T/C (second compound 0.316 µM, first compound 0.000949 µM): 84.9%
- viability, T/C (second compound 0.316 µM, first compound 0.003 µM): 89.5%
- viability, T/C (second compound 0.316 µM, first compound 0.00949 µM): 79.6%
- viability, T/C (second compound 0.316 µM, first compound 0.03 µM): 73.8%
- viability, T/C (second compound 0.316 µM, first compound 0.0949 µM): 71.8%
- viability, T/C (second compound 0.316 µM, first compound 0.3 µM): 47.8%
- viability, T/C (second compound 1 µM, first compound 0.000949 µM): 69.8%
- viability, T/C (second compound 1 µM, first compound 0.003 µM): 87.3%
- viability, T/C (second compound 1 µM, first compound 0.00949 µM): 80.7%
- viability, T/C (second compound 1 µM, first compound 0.03 µM): 77.2%
- viability, T/C (second compound 1 µM, first compound 0.0949 µM): 67.5%
- viability, T/C (second compound 1 µM, first compound 0.3 µM): 58%
- viability, T/C (second compound 3.16 µM, first compound 0.000949 µM): 93.7%
- viability, T/C (second compound 3.16 µM, first compound 0.003 µM): 97.9%
- viability, T/C (second compound 3.16 µM, first compound 0.00949 µM): 86.9%
- viability, T/C (second compound 3.16 µM, first compound 0.03 µM): 84.7%
- viability, T/C (second compound 3.16 µM, first compound 0.0949 µM): 82.3%
- viability, T/C (second compound 3.16 µM, first compound 0.3 µM): 63.8%
- viability, T/C (second compound 10 µM, first compound 0.000949 µM): 45%
- viability, T/C (second compound 10 µM, first compound 0.003 µM): 44.2%
- viability, T/C (second compound 10 µM, first compound 0.00949 µM): 42.1%
- viability, T/C (second compound 10 µM, first compound 0.03 µM): 35.8%
- viability, T/C (second compound 10 µM, first compound 0.0949 µM): 33.1%
- viability, T/C (second compound 10 µM, first compound 0.3 µM): 26%
